# Molecular target: T1, AhR (Homo sapiens, UniProt P35869)
# T1 sequence (P35869 11-848): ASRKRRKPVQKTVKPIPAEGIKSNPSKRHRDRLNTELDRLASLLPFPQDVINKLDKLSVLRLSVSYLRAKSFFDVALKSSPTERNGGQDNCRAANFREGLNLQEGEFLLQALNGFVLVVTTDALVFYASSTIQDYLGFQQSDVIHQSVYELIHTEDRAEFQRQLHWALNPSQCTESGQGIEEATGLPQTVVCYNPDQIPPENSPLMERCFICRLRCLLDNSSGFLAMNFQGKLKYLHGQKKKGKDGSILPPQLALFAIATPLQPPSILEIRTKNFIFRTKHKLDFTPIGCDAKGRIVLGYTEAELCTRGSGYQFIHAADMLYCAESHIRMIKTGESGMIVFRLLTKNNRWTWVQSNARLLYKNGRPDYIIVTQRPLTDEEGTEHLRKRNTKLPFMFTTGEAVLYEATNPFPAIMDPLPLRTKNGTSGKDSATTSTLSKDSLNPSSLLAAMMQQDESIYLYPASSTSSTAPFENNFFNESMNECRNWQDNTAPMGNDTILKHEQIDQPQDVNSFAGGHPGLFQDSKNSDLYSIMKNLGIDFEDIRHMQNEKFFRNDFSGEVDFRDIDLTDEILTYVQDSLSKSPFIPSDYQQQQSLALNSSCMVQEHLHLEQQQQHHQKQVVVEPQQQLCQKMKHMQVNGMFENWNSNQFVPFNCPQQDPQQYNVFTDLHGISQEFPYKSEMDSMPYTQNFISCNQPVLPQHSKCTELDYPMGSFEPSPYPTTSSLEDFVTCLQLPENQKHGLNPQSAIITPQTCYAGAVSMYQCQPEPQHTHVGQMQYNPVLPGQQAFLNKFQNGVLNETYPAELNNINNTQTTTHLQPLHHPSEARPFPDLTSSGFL
# Assay: In Vitro Assay 1: XRE-luciferase reporter assay, antagonism in human cell line (HepG2)
# Conditions: Assay 1: AhR-Luc Human Antagonism (IC50, nM), unmarked values: kynurenine 200 μM, 6 hours
# Description: In Vitro XRE-Luciferase Reporter Assay (In Vitro Assay 1, 2, 3) AhR activation leads the induction of target gene expression such as CYP1A1 and CYPIB1 by AhR binding to AhR-responsive DNA elements also known as xenobiotics responsive elements (XREs). The assay for measuring AhR activity herein is the luciferase assay using cell lines transfected with luciferase reporter plasmid containing XREs at the upstream of the reporter gene. Cells transfected with XRE-luciferase reporter (XRE-Luc), plasmid drive luciferase activity reflecting activation and inhibition of AhR in the cells. […] Kynurenine (an endogenous AhR agonist), was used to stimulate cells to test antagonistic properties of the compounds. The half-maximal inhibitory concentration (IC50), or half-maximal effective concentration (EC50), value was calculated using nonlinear regression (four parameters), with Prism8.0 software (GraphPad).
# In Vitro Assay 1: Antagonism in Human Cell Line
# HepG2 (human hepatoma cell line) cell line with a XRE-luciferase reporter either transiently or stably (Invivogen) were plated in complete medium and incubated at 37° C. in a CO2 incubator. After 24 hours, cells were treated with kynurenine (50* or 200 μM) alone (negative control) or with test compounds for 6 hours. Luciferase activity was measured with a commercial kit such as the Promega Luciferase kit or Invivogen Luciferase kit. Relative luciferase activity (Firefly/Nano-Luc) was used to calculate IC50 values. […] (IC50 values are grouped as A, B, C and D, whereby A: IC50<0.01 μM; B: 0.01<IC50<0.1 μM; C: 0.1<IC50<1.0 μM; D: IC50>1.0 μM)
row,SMILES,IC50 [nM]
1,"Cn1cc(-c2nc(-c3ccc(N4CCOCC4)cc3)cc(N3CCC(CO)CC3)n2)cn1 [Example 286, (1-(2-(1-methyl-1H-pyrazol-4-yl)-6-(4-morpholinophenyl)pyrimidin-4-yl)piperidin-4-yl)methanol]",100 to 1000
2,"O=S(=O)(CCO)N1CCN(c2cc(-c3ccc(C(F)(F)F)cc3)nc(-c3cnsc3)n2)CC1 [Example 370, 2-((4-(2-(isothiazol-4-yl)-6-(4-(trifluoromethyl)phenyl)pyrimidin-4-yl)piperazin-1-yl)sulfonyl)ethanol]",10 to 100
3,"CC1CN(S(=O)(=O)CCO)CCN1c1cc(-c2ccc(Cl)cc2)nc(-c2cccnc2)n1 (stereo not shown) [Example 359, 2-((4-(6-(4-chlorophenyl)-2-(pyridin-3-yl)pyrimidin-4-yl)-3-methylpiperazin-1-yl)sulfonyl)ethan-1-ol]",10 to 100
4,"OC[C@H]1CCN(c2cc(-c3ccc(Cl)cc3)nc(-c3cccnc3)n2)C[C@H]1O [Example 247, (3S,4R)-1-(6-(4-chlorophenyl)-2-(pyridin-3-yl)pyrimidin-4-yl)-4-(hydroxymethyl)piperidin-3-ol]",10 to 100
5,"OC1CCCCN(c2cc(-c3ccc(Cl)cc3)nc(-c3cccnc3)n2)C1 (stereo not shown) [Example 338, 1-(6-(4-chlorophenyl)-2-(pyridin-3-yl)pyrimidin-4-yl)azepan-3-ol]",100 to 1000
6,"OC[C@H]1CN(c2cc(-c3ccc(C(F)(F)F)cc3)nc(-c3cccnc3)n2)CCN1 [Example 309, (R)-(4-(2-(pyridin-3-yl)-6-(4-(trifluoromethyl)phenyl)pyrimidin-4-yl)piperazin-2-yl)methanol]",10 to 100
7,"CN(C)C1CN(c2cc(-c3ccc(Cl)cc3)nc(-c3cccnc3)n2)CCC1CO (stereo not shown) [Example 358, (1-(6-(4-chlorophenyl)-2-(pyridin-3-yl)pyrimidin-4-yl)-3-(dimethylamino)piperidin-4-yl)methanol]",100 to 1000
8,"O=C1COCCN1c1ccc(-c2cc(N3CC[C@H](O)C3)nc(-c3cccnc3)n2)cn1 [Example 372, (S)-4-(5-(6-(3-hydroxypyrrolidin-1-yl)-2-(pyridin-3-yl)pyrimidin-4-yl)pyridin-2-yl)morpholin-3-one]",100 to 1000
9,"CC(=O)N[C@@H]1CN(c2cc(-c3ccc(Cl)cc3)nc(-c3cccnc3)n2)C[C@H]1O [Example 241, N-((3R,4R)-1-(6-(4-chlorophenyl)-2-(pyridin-3-yl)pyrimidin-4-yl)-4-hydroxypyrrolidin-3-yl)acetamide]",10 to 100
10,"Oc1ncccc1-c1nc(-c2ccc(N3CCOCC3)nc2)cc(N2CC[C@H](O)C2)n1 [Example 295, (S)-3-(4-(3-hydroxypyrrolidin-1-yl)-6-(6-morpholinopyridin-3-yl)pyrimidin-2-yl)pyridin-2-ol]",> 1000
11,"O[C@@H]1CN(c2cc(-c3ccc(C(F)(F)F)cc3)nc(-c3cccnc3)n2)C[C@@H]1O [Example 343, (3S,4R)-1-(2-(pyridin-3-yl)-6-(4-(trifluoromethyl)phenyl)pyrimidin-4-yl)pyrrolidine-3,4-diol]",> 1000
12,"CC(=O)N[C@H]1CN(c2cc(-c3ccc(Cl)cc3)nc(-c3cccnc3)n2)C[C@@H]1O [Example 245, N-((3S,4S)-1-(6-(4-chlorophenyl)-2-(pyridin-3-yl)pyrimidin-4-yl)-4-hydroxypyrrolidin-3-yl)acetamide]",10 to 100
13,"CS(=O)(=O)N1CC2CC1CN2c1cc(-c2ccc(Cl)cc2)nc(-c2cccnc2)n1 (stereo not shown) [Example 331, 2-(6-(4-chlorophenyl)-2-(pyridin-3-yl)pyrimidin-4-yl)-5-(methylsulfonyl)-2,5-diazabicyclo[2.2.1]heptane]",< 10

# Same assay, conditions: Assay 1: AhR-Luc Human Antagonism (IC50, nM), values marked *: kynurenine 50 μM, 6 hours
row,SMILES,IC50 [nM]
1,"ClC[C@@H]1CCN(c2cc(-c3ccc(Cl)cc3)nc(-c3cccnc3)n2)C1 [Example 210, (R)-4-(3-(chloromethyl)pyrrolidin-1-yl)-6-(4-chlorophenyl)-2-(pyridin-3-yl)pyrimidine]",10 to 100
2,"F[C@@H]1CNCC[C@H]1Nc1cc(-c2ccc(Cl)cc2)nc(-c2cccnc2)n1 [Example 205, 6-(4-chlorophenyl)-N-((3R,4R)-3-fluoropiperidin-4-yl)-2-(pyridin-3-yl)pyrimidin-4-amine]",> 1000
3,"C[C@@H](CO)Nc1nc(-c2ccc(Cl)cc2)cc(-c2cccnc2)n1 [Example 3, (S)-2-((4-(4-chlorophenyl)-6-(pyridin-3-yl)pyrimidin-2-yl)amino)propan-1-ol]",100 to 1000
4,"Cc1cccc(N2CCN(c3cc(-c4ccc(Cl)cc4)nc(-c4cccnc4)n3)CC2)c1 [Example 116, 4-(4-chlorophenyl)-2-(pyridin-3-yl)-6-(4-(m-tolyl)piperazin-1-yl)pyrimidine]",> 1000
5,"OCCN1CCN(c2cc(-c3ccc(Cl)cc3)nc(-c3cccnc3)n2)CC1 [Example 82, 2-(4-(6-(4-chlorophenyl)-2-(pyridin-3-yl)pyrimidin-4-yl)piperazin-1-yl)ethan-1-ol]",< 10
6,"CC(=O)N1CCN(c2cc(-c3ccc(Cl)cc3)nc(-c3cccnc3)n2)CC1 [Example 108, 1-(4-(6-(4-chlorophenyl)-2-(pyridin-3-yl)pyrimidin-4-yl)piperazin-1-yl)ethan-1-one]",< 10
7,"CN1CCN(C2CCN(c3cc(-c4ccc(Cl)cc4)nc(-c4cccnc4)n3)C2)CC1 (stereo not shown) [Example 122, 4-(4-chlorophenyl)-6-(3-(4-methylpiperazin-1-yl)pyrrolidin-1-yl)-2-(pyridin-3-yl)pyrimidine]",10 to 100
8,"O[C@@H]1CCC[C@@H]1Nc1cc(-c2ccc(Cl)cc2)nc(-c2cccnc2)n1 [Example 66, (1R,2S)-2-((6-(4-chlorophenyl)-2-(pyridin-3-yl)pyrimidin-4-yl)amino)cyclopentan-1-ol]",> 1000
9,"CCOc1ccccc1N1CCN(c2cc(-c3ccc(Cl)cc3)nc(-c3cccnc3)n2)CC1 [Example 84, 4-(4-chlorophenyl)-6-(4-(2-ethoxyphenyl)piperazin-1-yl)-2-(pyridin-3-yl)pyrimidine]",> 1000
10,"NCC1CCCN(c2cc(-c3ccc(Cl)cc3)nc(-c3cccnc3)n2)C1 (stereo not shown) [Example 62, (1-(6-(4-chlorophenyl)-2-(pyridin-3-yl)pyrimidin-4-yl)piperidin-3-yl)methanamine]",> 1000
11,"O[C@@H]1CCCC[C@H]1Nc1cc(-c2ccc(Cl)cc2)nc(-c2cccnc2)n1 [Example 69, (1R,2R)-2-((6-(4-chlorophenyl)-2-(pyridin-3-yl)pyrimidin-4-yl)amino)cyclohexan-1-ol]",100 to 1000
12,"CN1CCCC1CCNc1cc(-c2ccc(Cl)cc2)nc(-c2cccnc2)n1 (stereo not shown) [Example 131, 6-(4-chlorophenyl)-N-(2-(1-methylpyrrolidin-2-yl)ethyl)-2-(pyridin-3-yl)pyrimidin-4-amine]",> 1000
13,"CCN1CCN(c2cc(-c3ccc(Cl)cc3)nc(-c3cccnc3)n2)CC1 [Example 106, 4-(4-chlorophenyl)-6-(4-ethylpiperazin-1-yl)-2-(pyridin-3-yl)pyrimidine]",10 to 100
14,"O[C@@H]1CCC[C@H]1Nc1cc(-c2ccc(Cl)cc2)nc(-c2cccnc2)n1 [Example 29, (1R,2R)-2-((6-(4-chlorophenyl)-2-(pyridin-3-yl)pyrimidin-4-yl)amino)cyclopentan-1-ol]",10 to 100
15,"CC1CCCC(C)N1c1cc(-c2ccc(Cl)cc2)nc(-c2cccnc2)n1 (stereo not shown) [Example 49, 4-(4-chlorophenyl)-6-(2,6-dimethylpiperidin-1-yl)-2-(pyridin-3-yl)pyrimidine]",> 1000
16,"Clc1ccc(-c2cc(NC3CCNCC3)nc(-c3cccnc3)n2)cc1 [Example 54, 6-(4-chlorophenyl)-N-(piperidin-4-yl)-2-(pyridin-3-yl)pyrimidin-4-amine]",> 1000
17,"Cn1cc(-c2nc(-c3ccc(Cl)cc3)cc(N3CC[C@H](O)C3)n2)cn1 [Example 183, (S)-1-(6-(4-chlorophenyl)-2-(1-methyl-1H-pyrazol-4-yl)pyrimidin-4-yl)pyrrolidin-3-ol]",100 to 1000
18,"N[C@@H]1CCCN(c2cc(-c3ccc(Cl)cc3)nc(-c3cccnc3)n2)C1 [Example 60, (R)-1-(6-(4-chlorophenyl)-2-(pyridin-3-yl)pyrimidin-4-yl)piperidin-3-amine]",> 1000
19,"CN1CCN(c2cc(-c3ccc(Cl)cc3)nc(-c3cnn(C)c3)n2)CC1 [Example 181, 4-(4-chlorophenyl)-2-(1-methyl-1H-pyrazol-4-yl)-6-(4-methylpiperazin-1-yl)pyrimidine]",100 to 1000
20,"O[C@@H]1CCCN(c2cc(-c3ccc(Cl)cc3)nc(-c3cccnc3)n2)C1 [Example 38, (R)-1-(6-(4-chlorophenyl)-2-(pyridin-3-yl)pyrimidin-4-yl)piperidin-3-ol]",< 10
21,"C[C@@H]1CN(c2cc(-c3ccc(Cl)cc3)nc(-c3cccnc3)n2)C[C@H](C)N1 [Example 104, Cis-4-(4-chlorophenyl)-6-(3,5-dimethylpiperazin-1-yl)-2-(pyridin-3-yl)pyrimidine]",> 1000
